Measured values as given in US20230234928A1, “Novel Compounds for Treating Fibrosis and Inflammatory Conditions” (MAKScientific, LLC, priority 2020, published 2023).
Several values for one entry are separate records, joined by “and”; a condition that tells them apart may be missing. Equal values may be shown once.

Tests used:
[1] = system: C57BL/6 mice; test: diabetic (STZ) high-fat diet mouse NASH model; assay type: in vivo; settings: 10 mg/kg PO daily; for fibrosis scores: vs control group
Procedure: Timed pregnant female C57BL/6 mice (Jackson Laboratories, USA) were obtained and housed with a cardboard hut for birthing and nursing of pups (enrichment), in an AAALAC-accredited vivarium, prefilled with corn cob bedding on a 12-hour light-dark at 68-74° F. and 30-70% humidity. Pregnant female mice were fed water and a standard rodent diet (Teklad irradiated 2918) ad libitum consisting of 18% protein, 5% fat, and 5% fiber. Three days post birth, pups from all litters received streptozotocin (STZ), i.p. at 200 mg/kg, to induce a mild to moderate hyperglycemia and insulin insufficiency. Random blood glucose was measured at weaning when pups were 25 days old. At weaning, mice were fed water and a standard rodent diet (Teklad irradiated 2918) ad libitum consisting of 18% protein, 5% fat, and 5% fiber. At 4 weeks of age, male mice were randomized into 7 study groups based on a random blood glucose (RBG) between 200-750 mg/dl and were switched from the standard rodent diet to the modified high fat diet (HFD), Research Diets D09100310 for the remainder of the study. Following 3 weeks of HFD feeding, test article and vehicle control dose administration was initiated and continued for up to 9 weeks. Body weights were measured at least twice a week from dose initiation through study end/termination. HFD was changed weekly with the old food being discarded. Animals had random blood glucose measured every 3 weeks and at termination. Clinical observations were performed daily from receipt/birth and continued through study end. Compound 1 and rimonabant were stored at −20° C. prior to drug preparation. Following three weeks of modified diet feeding, dose initiation of the compounds began and continued for up to 9 weeks. Test compounds were dissolved in 2% dimethyl sulfoxide, followed by 8% Tween-80 and 8% propylene glycol. Saline was added slowly to this solution with sonication prior to administration. Animals were dosed at 10 mg/kg via oral gavage (PO), daily, for up to 9 weeks.
Livers were scored for both NAS and NASH parameters. […] Fibrosis was observed across all study groups. […] Lobular inflammation was present across all NASH study groups thus indicating inflammatory cell infiltration. Following 9 weeks of treatment with Compound 1, lobular inflammation was reduced.

[2] = molecular target: T1, CB1 cannabinoid receptor (Homo sapiens, UniProt P21554); test: CB1 competition-equilibrium binding using [3H]CP-55,940; settings: competition binding with [3H]CP-55,940; FIG. 1: hCB1-HEK292 cells; read-out: CB1 cannabinoid receptor binding affinity (Ki)
T1 construct: expressed in transfected cells; host or cells: HEK293
Procedure: (§1) HEK293 cells expressing hCB1, hCB2 or mCB2 receptor are used for membrane preparations according to the method described in J Neurochem 1999, 72, (5), 2032-8, herein incorporated by reference in its entirety. The resulting pellet is resuspended in 10 mM Tris-chloride, pH 7.4 with 5 mM MgCl2 and 2 mM EDTA (TME), and stored at −80° C. for no longer than two months. Protein content is assayed by using the Bio-Rad DC protein assay according to the manufacturer's protocol.
Frozen rat brains (CB1 source) are obtained from Pel-Freeze Biologicals (Rogers, Ak.) and stored at −80° C. until use. […]
(§2) The compound was tested for its ability to bind to CB1 and CB2 receptors using rat brain or HEK293 cell membranes expressing hCB2 and mCB2 membrane preparations, respectively, as described in J Med Chem 1999, 42, (4), 769-776, J Med Chem 1994, 37, (23), 3867-70 and Life Sci 1995, 56, (23-24), 1957-62 (each herein incorporated by reference in its entirety) via competition-equilibrium binding using [^3H]CP-55,940. The results were analyzed using nonlinear regression to determine the actual IC50 of the ligand (Prizm by GraphPad Software, Inc.) and the Ki values are calculated from the IC50 as described in Biochemical Pharmacology 1973, 22, (23), 3099-3108; herein incorporated by reference in its entirety.

[3] = molecular target: CB2 cannabinoid receptor (UniProt P34972); test: CB2 competition-equilibrium binding using [3H]CP-55,940; settings: competition binding with [3H]CP-55,940; read-out: CB2 cannabinoid receptor binding affinity (Ki)
Procedure: as §1, §2

[4] = molecular target: T2, CB1 (Mus musculus, UniProt P47746); test: in vivo CB1 antagonism (hypothermia) in male CD1 mice; settings: 10 mg/kg i.p. test compound, 30 mg/kg Δ9-THC, male CD-1 mice, rectal temperature
T2 construct: tissue Charles River; host or cells: whole animal, male CD-1 mice
Procedure: Male CD-1 mice (Charles River, Wilmington, Mass., USA) aged 4-6 weeks weighing between 25-35 gm were chosen for in vivo CB1 antagonism testing. The mice were housed 4 per cage with free access to food and water. The temperature of the vivarium was 25° C. with a non-reversed 12 hrs light/dark cycle (lights on 7 am). Mice were habituated to the vivarium for at least one week before any experiments were performed. All experimental procedures were pre-approved by The Animal Care and Use Committee of Northeastern University, Boston, Mass., USA. The “Principles of Animal Laboratory Care” (National Institute of Health 1996) was followed. The test compound (10 mg/kg) was dissolved in 4% dimethyl sulfoxide, followed by 8% Tween-80 and 8% propylene glycol. Saline was added slowly to this solution with sonication prior to administration. Δ^9-THC was initially dissolved in 2% dimethyl sulfoxide, followed by 4% Tween-80 and 4% propylene glycol. Saline was added slowly to this drug solution with sonication prior to administration. All administrations were i.p. at a volume of 10 ml/kg. […] Core temperature was measured using a rectal probe of a digital laboratory thermometer, RET-3-ISO, type T thermocouple (Physitemp Instruments Inc., Clifton, N.J.). The probe was inserted 2 cm into the rectum for ≈20 to 30 seconds at which time the rectal temperature readings had stabilized.

T1 sequence (P21554 whole entry): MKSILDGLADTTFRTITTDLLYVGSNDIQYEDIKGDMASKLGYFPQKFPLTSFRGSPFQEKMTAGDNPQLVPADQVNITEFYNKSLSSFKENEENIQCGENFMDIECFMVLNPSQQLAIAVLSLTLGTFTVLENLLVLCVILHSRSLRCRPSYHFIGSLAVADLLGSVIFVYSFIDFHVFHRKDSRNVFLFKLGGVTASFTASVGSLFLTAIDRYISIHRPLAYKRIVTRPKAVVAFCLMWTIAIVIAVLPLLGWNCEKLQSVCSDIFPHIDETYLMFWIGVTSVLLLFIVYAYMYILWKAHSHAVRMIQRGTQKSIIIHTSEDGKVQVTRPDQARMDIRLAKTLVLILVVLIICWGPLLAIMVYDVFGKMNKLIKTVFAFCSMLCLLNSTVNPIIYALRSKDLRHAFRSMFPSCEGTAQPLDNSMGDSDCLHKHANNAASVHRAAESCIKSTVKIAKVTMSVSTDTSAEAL
T2 sequence (P47746 whole entry): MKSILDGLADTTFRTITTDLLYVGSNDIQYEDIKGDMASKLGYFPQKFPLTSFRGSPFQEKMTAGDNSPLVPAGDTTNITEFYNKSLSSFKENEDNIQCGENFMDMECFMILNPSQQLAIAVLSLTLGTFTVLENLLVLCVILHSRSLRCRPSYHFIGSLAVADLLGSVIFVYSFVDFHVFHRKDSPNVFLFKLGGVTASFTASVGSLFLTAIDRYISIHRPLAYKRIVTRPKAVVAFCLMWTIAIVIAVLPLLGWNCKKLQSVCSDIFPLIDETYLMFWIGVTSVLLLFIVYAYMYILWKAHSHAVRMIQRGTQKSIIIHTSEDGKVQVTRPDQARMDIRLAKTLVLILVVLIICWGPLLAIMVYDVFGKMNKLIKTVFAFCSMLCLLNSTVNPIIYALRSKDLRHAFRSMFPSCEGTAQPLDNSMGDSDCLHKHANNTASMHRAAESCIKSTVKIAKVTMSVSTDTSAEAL

Structure (SMILES)	steatosis ([1]; 9 weeks of treatment, liver)	fibrosis scores ([1]; 9 weeks of treatment, liver)	Ki [2]	Ki [3]	lobular inflammation ([1]; 9 weeks of treatment, liver)	inflammation and fibrosis (overall) ([1]; up to 9 weeks)	animal survival ([1]; up to 9 weeks, compared to rimonabant)	antagonism of hypothermic effects induced by the CB1 agonist Δ9-THC [4]
Cc1c(C(=O)NN2CCCCC2)nn(-c2ccc(Cl)cc2Cl)c1-c1ccc(Cl)cc1 [rimonabant, 5-(4-chlorophenyl)-1-(2,4-dichlorophenyl)-4-methyl-N-(piperidin-1-yl)-1H-pyrazole-3-carboxamide, reference compound]	decreased	statistically significant when compared to the control group	–	–	–	–	–	–
Cc1c(C(=O)NN2CCS(=O)(=O)CC2)nc(-c2ccc(Cl)cc2Cl)n1-c1ccc(C#CCCC#N)cc1 [Compound 1, 1-(4-(4-cyanobut-1-yn-1-yl)phenyl)-2-(2,4-dichlorophenyl)-N-(1,1-dioxidothiomorpholino)-5-methyl-1H-imidazole-4-carboxamide]	decreased	statistically significant when compared to the control group	1 nM and ~1 nM	> 1000 nM	reduced	markedly attenuated or delayed the inflammation and fibrosis	increased animal survival as compared to rimonabant	inability of 10 mg/kg of compound 1 to antagonize the hypothermic effects
